According to the NIST ThermoML archive (doi:10.1021/je800224k):

Settings: Liquid, Bellows volumetry

CCn1cc[n+](C)c1.F[P-](F)(F)(F)(F)F [1-ethyl-3-methylimidazolium hexafluorophosphate]
mass density [kg/m3]
Settings	392.9 K	412.9 K	432.6 K	452.5 K	472.4 K
10000 kPa	–	1377	1360	1344	1327
20000 kPa	–	1384	1367	1351	1336
30000 kPa	–	1390	1374	1359	1344
40000 kPa	–	1397	1381	1366	1351
50000 kPa	–	1403	1387	1372	1358
60000 kPa	–	1408	1393	1379	1364
70000 kPa	–	1414	1399	1385	1371
80000 kPa	–	1420	1405	1391	1377
90000 kPa	–	1425	1411	1397	1383
100000 kPa	1445	1431	1417	1402	1389
110000 kPa	1450	1436	1422	1408	1395
120000 kPa	1455	1441	1427	1414	1400
130000 kPa	1460	1446	1432	1419	1405
140000 kPa	1464	1451	1437	1423	1411
150000 kPa	1469	1456	1442	1429	1416
160000 kPa	1474	1460	1447	1434	1421
170000 kPa	1478	1465	1451	1439	1426
180000 kPa	1483	1469	1456	1444	1431
190000 kPa	1487	1474	1461	1448	1436
200000 kPa	1491	1478	1465	1453	1440
